In the NIST ThermoML archive (doi:10.1016/j.jct.2015.04.034):

Assays:
[1] = 298.15 K; 101.33 kPa; Liquid; Vibrating tube method
[2] = excess molar enthalpy (molar enthalpy of mixing); xn = mol fraction of the nth substance listed; conditions: 101 kPa, Liquid, Flow calorimetry

CC1(C)C(=O)[C@]2(C)CC[C@H]1C2 [(-)-fenchone]
Conditions | mass density [kg/m3]
[1] | 940.67

CC1(C)C(=O)[C@]2(C)CC[C@H]1C2 [(-)-fenchone] + CC(C)O
excess molar enthalpy [kcal/mol], [2]
Conditions | 283.15 K | 298.15 K | 313.15 K | 328.15 K
x1 = 0.049 | 0.0619 | 0.0681 | 0.0727 | 0.0739
x1 = 0.097 | 0.117 | 0.13 | 0.138 | 0.14
x1 = 0.192 | 0.204 | 0.222 | 0.235 | 0.241
x1 = 0.292 | 0.26 | 0.287 | 0.306 | 0.316
x1 = 0.392 | 0.292 | 0.326 | 0.349 | 0.362
x1 = 0.499 | 0.302 | 0.338 | 0.364 | 0.378
x1 = 0.598 | 0.294 | 0.328 | 0.354 | 0.367
x1 = 0.697 | 0.263 | 0.294 | 0.316 | 0.326
x1 = 0.792 | 0.212 | 0.234 | 0.251 | 0.257
x1 = 0.899 | 0.116 | 0.13 | 0.141 | 0.144
x1 = 0.947 | 0.066 | 0.0743 | 0.0796 | 0.0817

CC1(C)C(=O)[C@]2(C)CC[C@H]1C2 [(-)-fenchone] + CCCO
excess molar enthalpy [kcal/mol], [2]
Conditions | 283.15 K | 298.15 K | 313.15 K | 328.15 K
x1 = 0.049 | 0.0459 | 0.0526 | 0.0578 | 0.0612
x1 = 0.098 | 0.0875 | 0.1 | 0.11 | 0.117
x1 = 0.193 | 0.154 | 0.175 | 0.191 | 0.204
x1 = 0.292 | 0.2 | 0.228 | 0.251 | 0.269
x1 = 0.397 | 0.232 | 0.267 | 0.293 | 0.315
x1 = 0.493 | 0.243 | 0.28 | 0.309 | 0.331
x1 = 0.592 | 0.239 | 0.277 | 0.305 | 0.326
x1 = 0.691 | 0.218 | 0.251 | 0.275 | 0.293
x1 = 0.805 | 0.167 | 0.19 | 0.206 | 0.217
x1 = 0.897 | 0.0975 | 0.114 | 0.125 | 0.131
x1 = 0.951 | 0.05 | 0.0574 | 0.0626 | 0.0657

CCCO [propan-1-ol]
Conditions | mass density [kg/m3]
[1] | 799.56

CC(C)O [propan-2-ol]
Conditions | mass density [kg/m3]
[1] | 781.2
